SMILES strings stand for the structures. Records with an inconclusive call do not appear.

In the assay the target is Huntingtin (Homo sapiens) (UniProt P42858). The experiment in a line: inhibitors of mutant Htt aggregation in vitro, dose response, QA1 (AID 1584). The conditions noted are these: in vitro mutant huntingtin aggregation assay.
Sequence of Huntingtin (Homo sapiens) (P42858 whole entry, looked up): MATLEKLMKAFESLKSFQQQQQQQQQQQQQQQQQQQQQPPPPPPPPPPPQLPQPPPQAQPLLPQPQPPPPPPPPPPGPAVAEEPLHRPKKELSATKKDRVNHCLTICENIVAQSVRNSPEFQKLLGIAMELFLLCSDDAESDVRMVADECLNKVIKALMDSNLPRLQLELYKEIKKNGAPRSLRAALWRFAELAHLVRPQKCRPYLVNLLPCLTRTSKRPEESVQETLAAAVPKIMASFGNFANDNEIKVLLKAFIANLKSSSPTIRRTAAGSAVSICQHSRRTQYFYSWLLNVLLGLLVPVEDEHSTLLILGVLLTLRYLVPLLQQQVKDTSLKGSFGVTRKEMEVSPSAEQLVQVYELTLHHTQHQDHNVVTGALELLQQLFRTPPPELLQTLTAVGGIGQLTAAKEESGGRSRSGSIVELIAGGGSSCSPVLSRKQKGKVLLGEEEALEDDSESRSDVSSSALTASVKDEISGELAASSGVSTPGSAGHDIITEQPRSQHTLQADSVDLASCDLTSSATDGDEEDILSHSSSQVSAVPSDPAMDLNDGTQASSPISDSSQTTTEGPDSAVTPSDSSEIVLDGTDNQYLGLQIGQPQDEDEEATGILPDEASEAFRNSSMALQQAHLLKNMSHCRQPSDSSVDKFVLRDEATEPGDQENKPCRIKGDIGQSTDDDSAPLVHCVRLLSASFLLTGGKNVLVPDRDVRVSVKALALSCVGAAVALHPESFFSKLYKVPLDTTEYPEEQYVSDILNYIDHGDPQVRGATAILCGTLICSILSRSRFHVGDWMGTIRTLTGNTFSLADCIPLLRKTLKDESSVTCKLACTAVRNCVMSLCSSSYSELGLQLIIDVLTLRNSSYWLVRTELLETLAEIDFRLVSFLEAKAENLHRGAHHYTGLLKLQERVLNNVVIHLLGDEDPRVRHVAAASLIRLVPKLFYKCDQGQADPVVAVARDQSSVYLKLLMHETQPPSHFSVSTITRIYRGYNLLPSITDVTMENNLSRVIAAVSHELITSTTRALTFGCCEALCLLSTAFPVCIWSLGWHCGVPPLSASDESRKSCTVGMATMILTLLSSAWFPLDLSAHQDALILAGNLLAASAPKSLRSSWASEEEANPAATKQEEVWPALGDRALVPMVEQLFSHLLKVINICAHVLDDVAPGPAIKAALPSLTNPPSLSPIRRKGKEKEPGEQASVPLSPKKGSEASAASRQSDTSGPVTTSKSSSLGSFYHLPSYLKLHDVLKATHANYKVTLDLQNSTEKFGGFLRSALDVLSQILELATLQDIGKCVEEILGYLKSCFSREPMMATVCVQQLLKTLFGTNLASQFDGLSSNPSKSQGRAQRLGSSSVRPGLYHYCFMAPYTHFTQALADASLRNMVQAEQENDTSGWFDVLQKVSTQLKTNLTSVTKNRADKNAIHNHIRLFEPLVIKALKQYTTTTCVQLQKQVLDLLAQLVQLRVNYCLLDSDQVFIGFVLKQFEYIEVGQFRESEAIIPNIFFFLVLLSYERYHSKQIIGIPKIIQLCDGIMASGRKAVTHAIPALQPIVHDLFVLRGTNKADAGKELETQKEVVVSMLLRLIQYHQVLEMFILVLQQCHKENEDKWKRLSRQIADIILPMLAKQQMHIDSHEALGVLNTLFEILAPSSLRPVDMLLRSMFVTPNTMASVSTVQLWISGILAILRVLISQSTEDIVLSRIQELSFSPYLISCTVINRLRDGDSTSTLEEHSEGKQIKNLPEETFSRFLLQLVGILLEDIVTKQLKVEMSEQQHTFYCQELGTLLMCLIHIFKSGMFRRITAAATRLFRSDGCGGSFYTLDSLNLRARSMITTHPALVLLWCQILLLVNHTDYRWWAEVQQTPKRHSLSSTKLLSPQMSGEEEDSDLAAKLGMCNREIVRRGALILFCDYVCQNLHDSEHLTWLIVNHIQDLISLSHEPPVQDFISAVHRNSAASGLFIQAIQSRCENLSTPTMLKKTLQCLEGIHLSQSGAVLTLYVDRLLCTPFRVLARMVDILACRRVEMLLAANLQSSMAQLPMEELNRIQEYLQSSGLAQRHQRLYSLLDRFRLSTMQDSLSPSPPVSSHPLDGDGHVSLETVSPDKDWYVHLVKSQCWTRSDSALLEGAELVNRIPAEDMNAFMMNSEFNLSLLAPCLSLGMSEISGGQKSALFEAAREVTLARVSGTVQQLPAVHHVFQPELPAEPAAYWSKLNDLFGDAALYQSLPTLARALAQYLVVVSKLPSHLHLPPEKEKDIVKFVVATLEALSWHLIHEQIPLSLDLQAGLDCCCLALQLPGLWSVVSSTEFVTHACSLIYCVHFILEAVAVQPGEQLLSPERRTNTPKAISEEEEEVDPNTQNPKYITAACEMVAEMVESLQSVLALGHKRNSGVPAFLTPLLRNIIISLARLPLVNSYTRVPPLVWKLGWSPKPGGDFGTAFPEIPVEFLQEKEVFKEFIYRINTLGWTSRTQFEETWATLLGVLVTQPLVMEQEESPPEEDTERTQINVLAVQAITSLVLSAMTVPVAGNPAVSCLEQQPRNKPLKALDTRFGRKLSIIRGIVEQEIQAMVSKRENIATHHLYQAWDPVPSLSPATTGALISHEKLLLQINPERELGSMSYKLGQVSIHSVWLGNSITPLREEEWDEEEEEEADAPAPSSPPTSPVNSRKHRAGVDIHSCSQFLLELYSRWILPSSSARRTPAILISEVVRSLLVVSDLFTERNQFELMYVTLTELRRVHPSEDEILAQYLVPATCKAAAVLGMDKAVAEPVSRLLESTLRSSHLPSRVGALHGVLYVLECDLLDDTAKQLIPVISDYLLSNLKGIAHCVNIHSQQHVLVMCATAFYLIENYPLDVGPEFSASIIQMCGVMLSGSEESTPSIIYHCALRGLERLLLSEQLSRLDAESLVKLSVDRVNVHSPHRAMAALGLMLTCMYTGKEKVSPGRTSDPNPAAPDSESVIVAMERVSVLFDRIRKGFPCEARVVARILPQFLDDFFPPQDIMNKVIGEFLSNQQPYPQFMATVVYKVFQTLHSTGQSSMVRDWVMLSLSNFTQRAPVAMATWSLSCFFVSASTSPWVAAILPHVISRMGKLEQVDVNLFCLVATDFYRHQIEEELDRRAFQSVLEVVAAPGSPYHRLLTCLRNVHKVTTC
With `C[C@@]1(C(=O)O)CC[C@]2(C)CC[C@]3(C)C4=CC=C5C=C(O)C(=O)C=C5[C@]4(C)CC[C@@]3(C)[C@@H]2C1`, the EC50 is 3.55 µM.
With `O=C1c2c(O)cccc2Cc2cccc(O)c21` the figure was 10.5 µM; with `O=c1c(O)c(-c2ccc(O)cc2O)oc2cc(O)cc(O)c12`, 17 µM.
Then `O=C1C=CC(=O)c2c(O)cccc21`, with 2.67 µM; and `C[n+]1cc2c3c(ccc2c2ccc4cc5c(cc4c21)OCO5)OCO3`, with 5.7 µM; and `CC(C)=CCCC1(C)C=Cc2c(O)c3c(c(CC=C(C)C)c2O1)OC12C(=CC4CC1C(C)(C)OC2(C/C=C(/C)C(=O)O)C4=O)C3=O` (stereo not given), with 0.87 µM.
With `Cc1cc2c(C(C)C)c(O)c(O)c(C=O)c2c(O)c1-c1c(C)cc2c(C(C)C)c(O)c(O)c(C=O)c2c1O` the figure was 0.65 µM; with `C=C1c2c(Cl)ccc(O)c2C(O)=C2C(=O)[C@]3(O)C(O)=C(C(N)=O)C(=O)[C@@H](N(C)C)[C@@H]3[C@@H](O)[C@H]12`, 14.8 µM.
For the compound `C=Cc1c(C)c2cc3[nH]c(cc4nc(cc5nc(cc1[nH]2)C(C)=C5CCC(=O)O)C(CCC(=O)O)=C4C)c(C)c3C=C`, the EC50 is 19.7 µM.
With `Cc1cc(/C=C/c2ccc3cc(N(C)C)ccc3[n+]2C)c(C)n1-c1ccccc1` the figure was 21.7 µM.

A word on the EC50: it is the concentration at which the effect is half-maximal.

Source of the values: PubChem BioAssay AID1584 (NINDS Approved Drug Screening Program, 2009).
